Experimental data: PMC7395048 (Archives of Toxicology, 2020)
Entries after “also recorded” stand apart in the source; their conditions may differ. Marks after values point to notes of the source that are not given here.

Experiments:
hiPSC-CM = hiPSC-CM MEA assay (FPDc, extracellular field potential); conditions: for cytotoxicity at the test concentrations: up to 30 µM, data not shown
Procedure: Briefly, each well of the MEA chips was precoated with 50 μg/ml fibronectin for 3 h in the incubator at 37 °C with 5% CO2. The fibronectin coating solution was aspirated before seeding. Cells were thawed in the incubator at 37 °C for exactly 4 min and carefully transferred to a 50-ml tube. The original vial was rinsed with serum free Pluricyte® Cardiomyocyte Medium and added drop-wise to the tube containing the cardiomyocytes. […] Then, the supernatant was removed and medium was drop-wisely added to reach the aimed concentration of cells in the suspension (10^4 cells/μl). 2-μl cell suspension per well was placed on the six-well MEA chips in a density of 10^4 cells/μl. After 3-h incubation (37 °C, 5% CO2), 200 μl of medium was filled into each well of the MEA chips which were subsequently incubated at 37 °C with 5% CO2 and refreshed with medium every 2 days.
At 7–8 days after seeding, MEA chips were placed on the headstage of a MEA2100-system (MCS GmbH) integrated with the chamber providing a stable atmosphere (37 °C, 5% CO2) to record the extracellular field potential (Fig. 2) of spontaneous beating hiPSC-CM. After an equilibration time of 20 min, half of the medium (100 μl) in each well was replaced by culture medium containing 0.2% (v/v) DMSO to reach a final concentration of 0.1% (v/v) DMSO, which was used as baseline condition. […] At each concentration, the extracellular field potential was recorded for 1 min after 10-min exposure. […] Same test concentrations were chosen for EDDP and EMDP, which enables definition of concentration-dependent curves for EDDP and EMDP that allow potency comparison.
One well of 0.1% (v/v) DMSO on each MEA chip was used as the vehicle control well and run at the same time as the compound exposure wells to correct for time- and DMSO-dependent effects on the field potential. A detailed exposure scheme can be found in Fig. S1. Data were collected using Cardio 2D software (MCS GmbH) with a sample frequency of 10 kHz and a 0.1–3.5-kHz band-pass filter.
Field potential duration (FPD) was defined as duration between the beginning of the sodium spike and the repolarizing peak (Fig. 2). RR-intervals were defined as the duration between two depolarization peaks (Fig. 2). The FPD and RR-interval were measured as the average of at least 30 beats from 1-min recording at each concentration of the test compound.
In this formula, the FPD and RR-interval are expressed in seconds. Data were collected from at least three independent experiments (4–8 wells, 26–38 electrodes), using a new vial of cells (all from the same batch) at each independent experiment. […] The concentrations inducing irregularities in the field potential trace (Fig. S2) were also noted.
The concentration–response curves were plotted with GraphPad Prism 5.0 using the four-parameters logistic fit (GraphPad Software Inc., San Diego, USA). Each data point is presented as the mean value of at least three independent experiments ± standard deviation (SD). Statistical significance of the changes in response of cells exposed to the compound compared to the solvent control was analyzed by one-way ANOVA followed by post Dunnett test. Values of p < 0.05 were regarded as statistically significant (p < 0.05: *, p < 0.01: ** and p < 0.001: ***). Statistical analysis was performed by GraphPad Prism 5.0 (GraphPad Software Inc.).

[1] = In vitro incubations with pooled human liver microsomes; conditions: EDDP as substrate, 1000 µM
Procedure: The test concentrations were chosen to enable adequate analysis of Michaelis–Menten kinetics. After one-min pre-incubation of this solution at 37 °C, the reactions were initiated by addition of human liver microsomes giving a final concentration of 0.5 mg/ml microsomal protein and incubations were performed in a shaking water bath at 37 °C for 40 min. Control incubations were performed in the absence of NADPH which was replaced with Tris–HCl. The reactions were terminated by addition of 40-µl ice-cold acetonitrile. Samples were kept on ice for at least 20 min and then centrifuged at 18,000g for 5 min at 4 °C to precipitate microsomal proteins.
Vmax and Km were obtained by fitting the data to Eq. (2) in GraphPad Prism 5.0 (GraphPad Software Inc.). Data were collected from three independent experiments and each data point is presented as the mean value ± SD.

[2] = design: method as in Hsu et al. ([2013]); conditions: subjects on methadone maintenance treatment; ref Hsu et al. ([2013]); cited from earlier work
hERG channels = conditions: ref Eap et al. [2007], cited from earlier work
[3] = ref Foster [2001]; cited from earlier work
[4] = cited from earlier work
[5] = RED assay, unbound fraction in pooled human plasma
Procedure: (§1) Then, 25 µl of post-dialysis samples were collected from the sample chambers and transferred to test sample tubes followed by an addition of 25 µl PBS. Equal volumes of post-dialysis samples collected from the buffer chamber which were then mixed with 25 µl of in vitro medium or human plasma in the buffer sample tubes. Then, both samples were precipitated using 300-µl cold acetonitrile/water (90/10 v/v). The samples were put on ice for 30 min followed by centrifugation for 30 min at 15,000g. Then, supernatants were collected for UPLC–PDA analysis.
(§2) The measurements were performed in triplicate in two independent experiments.

[6] = RED assay, unbound fraction in in vitro hiPSC-CM MEA assay medium; conditions: in vitro hiPSC-CM MEA assay medium (serum-free)
Procedure: as §1, §2

| Compound | BMC20, prolongation of FPDc (hiPSC-CM; 20% change in FPDc over control, cumulative addition, 10-min exposure) | unbound BMC20 (hiPSC-CM; BMC20 corrected for unbound fraction in medium) | concentration at which cessation of beating was observed (hiPSC-CM; human, 10 min) | concentration from which arrhythmia-like waveforms were induced (hiPSC-CM; tested up to 30 µM) | cytotoxicity at the test concentrations (hiPSC-CM) | EMDP formation from EDDP [1] | BPr (blood/plasma ratio) [2] | hERG channel block (hERG channels; Katchman et al. [2002]) | recovery of EDDP in feces [3] | free blood Cmax of EDDP ([4]; oral methadone 57.5 mg/day, estimated from reported EDDP data, ref De Vos et al. ([1995])) | fraction unbound at 5 h, 150 µM [5] | fraction unbound at 5 h, 150 µM [6] | concentration shortening the FPDc by 20% (BMC20 for decreasing FPDc) (hiPSC-CM; cumulative addition, 10-min exposure) | concentration causing beating arrest in certain wells (hiPSC-CM; in certain wells) | arrhythmia-type waveforms / FPDc prolongation (hiPSC-CM; test range 0.1-30 µM) | hERG channel inhibition (hERG channels) | in vivo total plasma concentration of EMDP ([4]; after clinical relevant dosing of methadone, ref Alburges et al. [1996]) |
| --- | --- | --- | --- | --- | --- | --- | --- | --- | --- | --- | --- | --- | --- | --- | --- | --- | --- |
| CC=C1N(C)C(C)CC1(c1ccccc1)c1ccccc1 (stereo not drawn) [EDDP, 2-ethylidene-1,5-dimethyl-3,3-diphenylpyrrolidine] | 2.3 µM | 2.07 µM | 30 µM | ≥ 3 µM | no cytotoxicity was observed | formation of EMDP was neither detectable | 0.87^c | weaker hERG channel blocker compared to methadone | up to 39% | 0.05 µM | 0.3 ± 0.015 | 0.9 ± 0.072 |  |  |  |  |  |
| CCC1=NC(C)CC1(c1ccccc1)c1ccccc1 (stereo not drawn) [EMDP, 2-ethyl-5-methyl-3,3-diphenylpyrroline] |  |  |  |  | no cytotoxicity was observed |  |  |  |  |  |  |  | 3.8 µM | 30 µM | without inducing arrhythmia-type waveforms; also recorded: Neither FPDc prolongation nor arrhythmia-type waveforms were observed | not inhibit hERG channels | less than 0.04 µM |
